# Values of other authors as cited in patent US20100322892A1, “PESTICIDE COMPOSITIONS AND APPLICATORS” (BASF CORPORATION, priority 2009, published 2010).
# Legend:
# termites = settings: in vivo
# ants = settings: in vivo
structure (smiles),measurement,setting,value
"N#Cc1nn(-c2c(Cl)cc(C(F)(F)F)cc2Cl)c(N)c1[S+]([O-])C(F)(F)F (racemic) [fipronil, (±)-5-amino-1-(2,6-dichloro-α,α,α-trifluoro-p-tolyl)-4-trifluoromethylsulfinylpyrazole-3-carbonitrile]",Dose toxic to termites,termites,2 nanograms per termite
same,Dose toxic to ants,ants,about 1 nanogram per ant
